Results taken from patent US20110319362A1, “STAT3 LIGANDS AND THERAPEUTIC USES THEREOF” (priority 2008, published 2011).

How the values were obtained:
[1] = biological target: T1, STAT3 protein (Homo sapiens, UniProt P40763); experiment: In vitro competitive STAT3 binding assay (fluorescence polarization); settings: FP competitive binding, fluorescently tagged STT2 peptide tracer; read-out: Binding affinities to STAT3 IC50
T1 construct: human STAT3 protein (residues 122-722) fused to His-tag; His-tag
Method in brief: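 FP competition: His-tagged human STAT3 (122-722), 150 nM, with 5 nM 5-Fam-labelled pYLPQTV phosphopeptide tracer (STT2) and titrated inhibitor, read after 2-3 h. IC50 = concentration displacing 50% of tracer, by nonlinear least-squares fit.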

[2] = test system: MDA-MB-231 cancer cell line; experiment: Cell growth assay (WST-8); assay type: cell-based; settings: Homo sapiens, MDA-MB-231, 96 h; WST-8, 4 days; read-out: Inhibition of cell growth IC50, MDA-MB-231 cancer cell line
Method in brief: (§1)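 Cells (3000–4000/well) grown 4 days with varied compound concentrations, then WST-8 dye added for 1–3 h and absorbance read at 450 nm. Growth inhibition expressed as sample-to-control absorbance ratio.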

[3] = test system: MDA-MB-468 cancer cell line; experiment: Cell growth assay (WST-8); assay type: cell-based; settings: Homo sapiens, MDA-MB-468, 96 h; WST-8, 4 days; read-out: Inhibition of cell growth IC50, MDA-MB-468 cancer cell line
Method in brief: as §1

T1 sequence (P40763 122-722): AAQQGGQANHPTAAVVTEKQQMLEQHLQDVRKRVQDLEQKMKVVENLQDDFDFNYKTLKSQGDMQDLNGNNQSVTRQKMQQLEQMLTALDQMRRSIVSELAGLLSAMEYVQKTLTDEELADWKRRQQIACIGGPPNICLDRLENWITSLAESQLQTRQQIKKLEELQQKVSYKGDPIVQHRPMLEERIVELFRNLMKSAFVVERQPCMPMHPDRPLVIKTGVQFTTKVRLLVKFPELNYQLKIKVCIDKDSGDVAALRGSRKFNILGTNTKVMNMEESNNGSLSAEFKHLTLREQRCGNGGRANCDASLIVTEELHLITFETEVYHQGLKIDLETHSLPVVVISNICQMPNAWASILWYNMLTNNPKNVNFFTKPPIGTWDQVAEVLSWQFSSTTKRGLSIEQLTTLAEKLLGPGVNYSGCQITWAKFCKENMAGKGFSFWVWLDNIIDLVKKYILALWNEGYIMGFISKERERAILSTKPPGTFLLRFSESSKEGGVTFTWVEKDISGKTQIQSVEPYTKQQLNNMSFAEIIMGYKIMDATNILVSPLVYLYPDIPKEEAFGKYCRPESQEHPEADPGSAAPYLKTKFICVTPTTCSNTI

`CN[C@@H](Cc1ccc(OCP(=O)(O)O)cc1)C(=O)NC1CCCC[C@H]2CC[C@@H](C(=O)N[C@@H](Cc3c[nH]cn3)C(=O)NCc3ccccc3)N2C1=O` (stereo in doubt) [Example 35] gave an IC50 [1] of less than 100 µM, an IC50 [2] greater than 100 µM and an IC50 [3] greater than 100 µM.
